Laboratory results from the supplement of paper PMC10627819.

Key:
S. aureus DSM 20231 [1] = experiment: fitness (endpoint OD595 vs no drug) (fraction); higher = more growth
In short: (§1)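 Plates with 384 wells were inoculated at OD595 0.01 using 30 µl of TSB, LB Lennox or CY, or 55 µl for S. pneumoniae. Incubation was at 37 °C, with OD595 measured every 30 min for 14 h. Fitness is the stationary-phase transition optical density over the robust mean of no-drug control wells, after first-reading background subtraction; it is capped at 1.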

S. aureus Newman [2] = experiment: as above; settings: main component drawn
In short: as §1

B. subtilis 168 [3] = experiment: Bliss interaction score (quartile over a dose matrix) (fitness difference); higher = more antagonism (negative = synergy)
In short: (§2)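 Each OD595 reading at entry into stationary phase was scaled to the robust mean of the untreated wells on its plate, with a ceiling of 1. These ratios define fitness, and single-drug fitness was inferred from combinations. The Bliss score compares observed fitness with the product-based expectation and is reported as quartiles across all replicate types, technical, biological and donor/recipient.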

S. aureus DSM 20231 [4] = experiment: as above
In short: as §2

S. aureus Newman [5] = experiment: as above
In short: as §2

S. pneumoniae D39V = experiment: as above
In short: as §2

B. subtilis 168 [6] = experiment: fitness (endpoint OD595 vs no drug) (fraction); higher = more growth
In short: as §1
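For Bliss interaction score (quartile over a dose matrix) in this document: first quartile when negative (synergy) and third quartile when positive (antagonism).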

C[n+]1ccc(-c2cc[n+](C)cc2)cc1 [Paraquat] + CCCCCCCCCC(=O)N[C@@H]1[C@H]([C@@H]([C@H](O[C@H]1OC2=C3C=C4C=C2OC5=C(C=C(C=C5)[C@H]([C@H]6C(=O)N[C@@H](C7=C(C(=CC(=C7)O)OC8[C@H]([C@H]([C@@H]([C@H](O8)CO)O)O)O)C9=C(C=CC(=C9)[C@H](C(=O)N6)NC(=O)[C@@H]4NC(=O)[C@@H]1C2=CC(=CC(=C2)OC2=C(C=CC(=C2)[C@H](C(=O)N[C@H](CC2=CC(=C(O3)C=C2)Cl)C(=O)N1)N)O)O)O)C(=O)O)O[C@H]1[C@@H]([C@H]([C@@H]([C@H](O1)CO)O)O)NC(=O)C)Cl)CO)O)O [Teicoplanin]
fitness
Settings	first compound 1.25 µg/mL	first compound 2.5 µg/mL	first compound 5 µg/mL
S. aureus DSM 20231 [1], partner 0.1562 µg/mL, main component drawn	0.957	0.954	0.967
S. aureus DSM 20231 [1], partner 0.3125 µg/mL, main component drawn	0.99	≥ 1	≥ 1
S. aureus DSM 20231 [1], partner 0.625 µg/mL, main component drawn	≥ 1	≥ 1	≥ 1
S. aureus Newman [2], partner 0.62 µg/mL, one replicate	0.795	0.782	0.775
S. aureus Newman [2], partner 1.24 µg/mL, one replicate	0.737	0.745	0.761
S. aureus Newman [2], partner 2.48 µg/mL, one replicate	0.336	0.402	0.117

fitness, S. aureus Newman [2]
Settings	first compound 1.25 µg/mL	first compound 2.5 µg/mL	first compound 5 µg/mL
partner 0.1562 µg/mL	≥ 1	≥ 1	≥ 1
partner 0.3125 µg/mL	≥ 1	0.98	0.962
partner 0.625 µg/mL	0.912	0.87	0.846

main component drawn
Settings	Bliss interaction score
B. subtilis 168 [3]	-0.044
S. aureus DSM 20231 [4]	0.0665
S. aureus Newman [5]	0.0904
S. pneumoniae D39V	0.0634

Cn1c2cccc(=O)c-2nc2ccccc21 [Pyocyanin] + CCCCCCCCCC(=O)N[C@@H]1[C@H]([C@@H]([C@H](O[C@H]1OC2=C3C=C4C=C2OC5=C(C=C(C=C5)[C@H]([C@H]6C(=O)N[C@@H](C7=C(C(=CC(=C7)O)OC8[C@H]([C@H]([C@@H]([C@H](O8)CO)O)O)O)C9=C(C=CC(=C9)[C@H](C(=O)N6)NC(=O)[C@@H]4NC(=O)[C@@H]1C2=CC(=CC(=C2)OC2=C(C=CC(=C2)[C@H](C(=O)N[C@H](CC2=CC(=C(O3)C=C2)Cl)C(=O)N1)N)O)O)O)C(=O)O)O[C@H]1[C@@H]([C@H]([C@@H]([C@H](O1)CO)O)O)NC(=O)C)Cl)CO)O)O [Teicoplanin]
fitness
Settings	first compound 1.25 µg/mL	first compound 2.5 µg/mL	first compound 5 µg/mL
S. aureus DSM 20231 [1], partner 0.1562 µg/mL, main component drawn	0.99	0.906	0.619
S. aureus DSM 20231 [1], partner 0.3125 µg/mL, main component drawn	≥ 1	0.962	0.647
S. aureus DSM 20231 [1], partner 0.625 µg/mL, main component drawn	≥ 1	≥ 1	0.691
S. aureus Newman [2], partner 0.62 µg/mL, one replicate	0.72	0.696	0.473
S. aureus Newman [2], partner 1.24 µg/mL, one replicate	0.698	0.558	0.238
S. aureus Newman [2], partner 2.48 µg/mL, one replicate	0.328	0.14	0.072

fitness, S. aureus Newman [2]
Settings	first compound 1.25 µg/mL	first compound 2.5 µg/mL	first compound 5 µg/mL
partner 0.1562 µg/mL	0.958	0.805	0.372
partner 0.3125 µg/mL	0.891	0.769	0.35
partner 0.625 µg/mL	0.708	0.54	0.247

main component drawn
Settings	Bliss interaction score
B. subtilis 168 [3]	-0.0698
S. aureus DSM 20231 [4]	0.0554
S. aureus Newman [5]	-0.114
S. pneumoniae D39V	0.0954

CN(N=O)C(=O)N[C@@H](C=O)[C@@H](O)[C@H](O)[C@H](O)CO [Streptozotocin] + CCCCCCCCCC(=O)N[C@@H]1[C@H]([C@@H]([C@H](O[C@H]1OC2=C3C=C4C=C2OC5=C(C=C(C=C5)[C@H]([C@H]6C(=O)N[C@@H](C7=C(C(=CC(=C7)O)OC8[C@H]([C@H]([C@@H]([C@H](O8)CO)O)O)O)C9=C(C=CC(=C9)[C@H](C(=O)N6)NC(=O)[C@@H]4NC(=O)[C@@H]1C2=CC(=CC(=C2)OC2=C(C=CC(=C2)[C@H](C(=O)N[C@H](CC2=CC(=C(O3)C=C2)Cl)C(=O)N1)N)O)O)O)C(=O)O)O[C@H]1[C@@H]([C@H]([C@@H]([C@H](O1)CO)O)O)NC(=O)C)Cl)CO)O)O [Teicoplanin]
fitness
Settings	first compound 0.15 µg/mL	first compound 0.3 µg/mL	first compound 0.6 µg/mL
S. aureus DSM 20231 [1], partner 0.1562 µg/mL, main component drawn	0.801	0.799	0.66
S. aureus DSM 20231 [1], partner 0.3125 µg/mL, main component drawn	0.935	0.91	0.713
S. aureus DSM 20231 [1], partner 0.625 µg/mL, main component drawn	≥ 1	0.937	0.787
S. aureus Newman [2], partner 0.62 µg/mL, one replicate	0.661	0.47	0.181
S. aureus Newman [2], partner 1.24 µg/mL, one replicate	0.578	0.259	0.0236
S. aureus Newman [2], partner 2.48 µg/mL, one replicate	0.363	0.0725	0.055

fitness, S. aureus Newman [2]
Settings	first compound 0.15 µg/mL	first compound 0.3 µg/mL	first compound 0.6 µg/mL
partner 0.1562 µg/mL	0.874	0.724	0.493
partner 0.3125 µg/mL	0.762	0.656	0.368
partner 0.625 µg/mL	0.632	0.534	0.177

main component drawn
Settings	Bliss interaction score
B. subtilis 168 [3]	0.154
S. aureus DSM 20231 [4]	0.097
S. aureus Newman [5]	-0.166
S. pneumoniae D39V	-0.0829

Cc1cc(NS(=O)(=O)c2ccc(N)cc2)no1 [Sulfamethoxazol] + COc1cc(Cc2cnc(N)nc2N)cc(OC)c1OC [Trimethoprim]
fitness, one replicate
Settings	first compound 0.5 µg/mL	first compound 1 µg/mL	first compound 2 µg/mL	first compound 4 µg/mL
B. subtilis 168 [6], partner 0.1 µg/mL	–	0.607	0.473	0.373
B. subtilis 168 [6], partner 0.125 µg/mL	0.481	–	–	0.285
B. subtilis 168 [6], partner 0.2 µg/mL	–	0.489	0.374	0.353
B. subtilis 168 [6], partner 0.25 µg/mL	0.389	–	–	–
B. subtilis 168 [6], partner 0.4 µg/mL	–	0.343	0.318	0.352
B. subtilis 168 [6], partner 0.5 µg/mL	0.299	–	–	–
B. subtilis 168 [6], partner 1 µg/mL	–	0.37	0.245	0.226
B. subtilis 168 [6], partner 2 µg/mL	–	0.323	0.163	0.109
S. aureus DSM 20231 [1], partner 0.125 µg/mL	–	0.534	0.22	0.041

fitness
Settings	first compound 1 µg/mL	first compound 2 µg/mL	first compound 4 µg/mL
B. subtilis 168 [6], partner 0.125 µg/mL	0.375	0.305	–
B. subtilis 168 [6], partner 0.25 µg/mL	0.351	0.376	–
B. subtilis 168 [6], partner 0.5 µg/mL	0.35	0.337	0.288
S. aureus DSM 20231 [1], partner 0.25 µg/mL	0.0669	0.0417	0.023
S. aureus DSM 20231 [1], partner 0.5 µg/mL	0.015	0.0145	0.0126
S. aureus DSM 20231 [1], partner 1 µg/mL	0.0332	0.0147	0.013

Settings	Bliss interaction score
B. subtilis 168 [3]	-0.173
S. aureus DSM 20231 [4]	-0.481
S. aureus Newman [5]	0.0676
S. pneumoniae D39V	-0.364
